In brackets after ≈: the same amount, converted by molar mass.
Columns and labels:
mouse L929 fibroblast = assay: Cell viability assay (MTT), L929; assay type: cell-based; settings: concentration for 30% proliferation inhibition, 24 h
Procedure: (§1) The epithelial cell line VERO (ATCC-Catalog No. CCL-81^TM), derived from the kidney of the African green monkey, Cercopithecus aethiops and fibroblast cell line L-929 (ATCC-Catalog No. CCL-1^TM), derived from Mus musculus (http://www.atcc.org) were grown in Iscoves’s Modified Dulbecco’s Medium (IMDM) supplemented with 10% (v/v) fetal bovine serum (FBS), plus 2 mM L-glutamine, 100 U/ml penicillin, 100.00 µg/ml streptomycin, 5 × 10^−5 M 2-mercaptoethanol and maintained at 37 °C in a 10% CO2 atmosphere. Subcultures were performed via enzymatic cell dissociation in 0.25% trypsin. After dissociation, the cells were placed in culture medium at 4 °C with 10% FBS to inhibit the action of trypsin. The isolated cells were centrifuged for 10 min at 1000×g at 4 °C, and the cells were grown in new bottles. This procedure was repeated when cells reached a confluence of ~90%. All commercial reactants and solvents were purchased from either Sigma-Aldrich Laborchemikalien GmbH (Dzitko et al. [2014]).
(§2) Suspensions of the compounds 4a–l were freshly prepared (5 mg/ml DMSO) before the cells were exposed, and diluted to appropriate concentrations; 0.9, 1.8, 3.9, 7.8, 15.6, 31.2, 62.5, and 125.00 μg/ml with the culture medium. Cells treated with 2.5% DMSO-solvent served as a control in each experiment.
(§3) The effects of tested compounds on the viability of mouse fibroblasts L929 and […] VERO cells were evaluated using the MTT assay. The MTT assay was used according to international standards: ISO 10993-5:2009 (Tests for in vitro cytotoxicity; http://www.iso.org/iso/catalogue_detail.htm? csnumber = 36406). L929 and VERO cells were plated into 96-well plates at a density of 1.0 × 10^4/100 μl/well in culture medium and allowed to attach for 24 h before treatment. Afterwards, culture medium in the plates was replaced by 100 μl compounds suspension at concentration of 0–125 μg/ml and the cells were exposed for 24 h. Then 1 mg/ml MTT (50 μl/well) was added to each well and incubated at 37 °C, 10 % CO2 for 2 h. Mitochondrial dehydrogenases of viable cells reduce the yellowish water-soluble MTT to water-insoluble formazan crystals, which were solubilized with dimethyl sulfoxide (DMSO). The cell culture medium was aspirated cautiously, after which 150 μl DMSO was added to each well and mixed thoroughly. Optical density (OD) was read on the ELISA reader (Multiskan EX, Labsystems; http://www.mtxlsi.com/multiskan_EX.htm) at 550 nm. The results were expressed as percentage viability compared with the treated 2.5% DMSO controls. All experiments were performed in triplicate.

[1] = Cell viability assay (MTT), L929; assay type: cell-based, Mus musculus; settings: mouse, L929 fibroblast cells
Procedure: as §1, §2, §3

[2] = system: Toxoplasma gondii BK strain; assay: T. gondii tachyzoite intracellular proliferation in VERO host cells ([3H]uracil incorporation); assay type: cell-based; settings: Toxoplasma gondii, VERO host cells
Procedure: as §1, §2
Stock solutions of the Sulfadiazine (100 mg/ml 1 N NaOH; Catalog No. S8626) was freshly prepared before each experiment, and diluted to appropriate concentrations: 5.00, 25.00, 50.00, 125.00, 250.00, 500.00, 1250.00, and 2500.00 μg/ml, respectively in IMDM complete medium. All commercial reactants and solvents were purchased from either Sigma-Aldrich Laborchemikalien GmbH.
Tachyzoites of T. gondii, BK strain, were maintained in female C57BL/6 (H-2^b) and BALB/c (H-2^d) mice (with genetically determined high and low susceptibility, respectively to Toxoplasma infection) via serial intraperitoneal inoculation of 10^5–10^6 parasites per mouse in phosphate-buffered saline (PBS). After 48 to 96 h, parasites were harvested via peritoneal lavage using PBS, pH 7.2, and centrifuged at 200×g for 5 min to remove blood cells and cell debris. The supernatant containing tachyzoites was collected and centrifuged again at 2000×g for 15 min. The final pellet was resuspended in IMDM, quantified in a Burker’s chamber, and used in experimental assays. Inbred mice were kept under standard laboratory conventional conditions. All experimental procedures were conducted according to guidelines of the 9. Local Ethics Commission for Experiments on Animals in Lodz.
VERO, (2 × 10^4 cells/100 µl/well) were grown in complete medium (IMDM) on 96-well plates. After 24 h incubation, a medium was removed and then T. gondii […] tachyzoites, suspended in culture medium supplemented with 0.9–125.00 μg/ml diaminotriazines 4a–l and as a control-sulfadiazine (5.0–2500.0 μg/ml), were added (2 × 10^5 tachyzoites/200 µl/well) to the cell monolayers. After subsequent 48 h incubation 1 µCi/well of [^3H] uracil (Moravek Biochemicals Inc., Brea, CA, USA) was applied to each microculture for further 18–20 h. The amount of the isotope incorporated into the parasite nucleic acid pool, corresponding to the parasite growth, was measured by liquid scintillation counting with 1450 Microbeta Plus Liquid Scintillation Counter (Wallac Oy, Turku, Finland). The cpms of host cells alone (below 250/microculture) were subtracted from cpms of T. gondii infected microcultures (Dzitko et al. [2014]).

VERO cells = assay: Cell viability assay (MTT), VERO; assay type: cell-based, Cercopithecus aethiops; settings: concentration for 30% proliferation inhibition, 24 h
Procedure: as §1, §2, §3

[3] = Cell viability assay (MTT), VERO; assay type: cell-based, Cercopithecus aethiops; settings: African green monkey (Cercopithecus aethiops), VERO kidney epithelial cells
Procedure: as §1, §2, §3

SMILES: C/C(=N\NC(N)=S)c1ccc(Nc2nc(N)nc(N)n2)cc1 [Compound 3, (2E)-2-(1-(4-((4,6-diamino-1,3,5-triazin-2-yl)amino)phenyl)ethylidene)hydrazinecarbothioamide]
- CC30 L929 (mouse L929 fibroblast): >125.0 µg/mL
- viability at 24 h, 0.9 µg/ml ([1]; 0.9 µg/ml): 110%
- viability at 24 h, 1.8 µg/ml ([1]; 1.8 µg/ml): 116%
- viability at 24 h, 3.9 µg/ml ([1]; 3.9 µg/ml): 111%
- viability at 24 h, 7.8 µg/ml ([1]; 7.8 µg/ml): 106%
- viability at 24 h, 15.6 µg/ml ([1]; 15.6 µg/ml): 105%
- viability at 24 h, 31.2 µg/ml ([1]; 31.2 µg/ml): 112%
- viability at 24 h, 62.5 µg/ml ([1]; 62.5 µg/ml): 111%
- viability at 24 h, 125 µg/ml ([1]; 125.0 µg/ml): 110%
- activity at 0.9 µg/mL ([2]; 0.9 µg/ml): 100%
- activity at 1.8 µg/mL ([2]; 1.8 µg/ml): 107%
- activity at 3.9 µg/mL ([2]; 3.9 µg/ml): 98.6%
- activity at 7.8 µg/mL ([2]; 7.8 µg/ml): 84.2%
- activity at 15.6 µg/mL ([2]; 15.6 µg/ml): 64.6%
- activity at 31.2 µg/mL ([2]; 31.2 µg/ml): 57.8%
- activity at 62.5 µg/mL ([2]; 62.5 µg/ml): 49.4%
- activity at 125 µg/mL ([2]; 125.0 µg/ml): 48.7%
- IC50 ([2]; GraphPad Prism curves, read-out: IC50 (50% inhibition of T. gondii proliferation in vitro)): 70.4 µg/mL (≈ 222 µM)
- melting point: > 230 °C
- CC30 VERO (VERO cells): >125.0 µg/mL
- viability at 24 h, 0.9 µg/ml ([3]; 0.9 µg/ml): 97.2%
- viability at 24 h, 1.8 µg/ml ([3]; 1.8 µg/ml): 94%
- viability at 24 h, 3.9 µg/ml ([3]; 3.9 µg/ml): 97.3%
- viability at 24 h, 7.8 µg/ml ([3]; 7.8 µg/ml): 88.8%
- viability at 24 h, 15.6 µg/ml ([3]; 15.6 µg/ml): 89.5%
- viability at 24 h, 31.2 µg/ml ([3]; 31.2 µg/ml): 96.2%
- viability at 24 h, 62.5 µg/ml ([3]; 62.5 µg/ml): 95.1%
- viability at 24 h, 125 µg/ml ([3]; 125.0 µg/ml): 89.2%

From publication PMC5854716, “Synthesis, molecular docking, ctDNA interaction, DFT calculation and evaluation of antiproliferative and anti-Toxoplasma gondii activities of 2,4-diaminotriazine-thiazole derivatives” (Medicinal Chemistry Research, 2018)
